Laboratory results as given in patent US7683089B1, “4-(Phenylmethyl and substituted phenylmethyl)-imidazole-2-thiones acting as specific alpha2 adrenergic agonists” (Allergan, Inc, priority 2004, dated 2010).

Columns and labels:
male Sprague-Dawley rats = assay: Sedative activity (exploratory behavior/locomotor skills); format: in vivo, rat; settings: intraperitoneally, up to a dose of 1 mg/kg, 30 minutes after injection
Method: To test sedation, six male Sprague-Dawley rats are given up to 3 mg/kg of the test compound in a saline or DMSO vehicle by intraperitoneal injection (i.p.). Sedation is graded 30 minutes following administration of the drug by monitoring locomotor skills as follows.
The Sprague-Dawley rats are weighed and 1 ml/kg body weight of an appropriate concentration (ie. 3 mg/ml for a final dose of 3 mg/kg) drug solution is injected intraperitoneally. Typically the test compound is formulated in approximately 10 to 50% DMSO. The results are compared to controls that are injected with 1 ml/kg saline or 10 to 50% DMSO. Rat activity is then determined 30 minutes after injection of the drug solution. Rats are placed in a dark covered chamber and a digicom analyzer (Omnitech Electronic) quantitates their exploratory behavior for a five-minute period. The machine records each time the rat interrupts an array of 32 photoelectric beams in the X and Y orientation.

[1] = biological target: T1, alpha2C adrenergic receptor (Homo sapiens, UniProt P18825); assay: Receptor Selection and Amplification Technology (RSAT) assay, alpha2C; format: cell-based; settings: RSAT in NIH-3T3 cells; ratio of maximal effect of drug to that of standard full agonist brimonidine (UK14304); NA = not active at concentrations less than 10 micromolar
T1 construct: expressed in transfected cells; host or cells: NIH-3T3 cells
T1 sequence (P18825 1-462): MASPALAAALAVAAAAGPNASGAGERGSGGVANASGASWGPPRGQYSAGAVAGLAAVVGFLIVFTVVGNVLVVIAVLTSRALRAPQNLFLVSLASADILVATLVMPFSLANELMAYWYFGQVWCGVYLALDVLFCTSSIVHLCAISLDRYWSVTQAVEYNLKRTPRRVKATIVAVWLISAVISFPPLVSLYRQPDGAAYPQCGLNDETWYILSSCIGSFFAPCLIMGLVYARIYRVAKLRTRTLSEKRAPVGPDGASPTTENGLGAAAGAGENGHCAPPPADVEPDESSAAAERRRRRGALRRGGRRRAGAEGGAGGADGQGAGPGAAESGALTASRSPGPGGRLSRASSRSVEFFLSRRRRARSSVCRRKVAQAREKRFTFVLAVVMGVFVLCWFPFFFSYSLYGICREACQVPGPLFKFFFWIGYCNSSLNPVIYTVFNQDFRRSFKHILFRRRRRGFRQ
Text: (§1) The imidazole-2-thione compounds of the invention are agonists of alpha2 adrenergic receptors. […] Al., 1995, Pharmacol. Toxicol. 76, pp. 308-311 (incorporated herein by reference) and is also described below. Another reference pertinent to this assay is Conklin et al. (1993) Nature 363:274-6, also incorporated herein by reference.
(§2) Receptor Selection and Amplification Technology (RSAT) Assay
(§3) The RSAT assay measures a receptor-mediated loss of contact inhibition that results in selective proliferation of receptor-containing cells in a mixed population of confluent cells. The increase in cell number is assessed with an appropriate transfected marker gene such as β-galactosidase, the activity of which can be easily measured in a 96-well format. Receptors that activate the G protein, Gq, elicit this response. Alpha2 receptors, which normally couple to Gi, activate the RSAT response when coexpressed with a hybrid Gq protein that has a Gi receptor recognition domain, called Gq/i5.
(§4) NIH-3T3 cells are plated at a density of 2×10^6 cells in 15 cm dishes and maintained in Dulbecco's modified Eagle's medium supplemented with 10% calf serum. One day later, cells are cotransfected by calcium phosphate precipitation with mammalian expression plasmids encoding p-SV-β-galactosidase (5-10 μg), receptor (1-2 μg) and G protein (1-2 μg). 40 μg salmon sperm DNA may also be included in the transfection mixture. […] After washing with phosphate-buffered saline, β-galactosidase enzyme activity is determined by adding 200 μl of the chromogenic substrate (consisting of 3.5 mM o-nitrophenyl-β-D-galactopyranoside and 0.5% nonidet P-40 in phosphate buffered saline), incubating overnight at 30° C. and measuring optical density at 420 nm. The absorbance is a measure of enzyme activity, which depends on cell number and reflects a receptor-mediated cell proliferation. The efficacy or intrinsic activity is calculated as a ratio of the maximal effect of the drug to the maximal effect of a standard full agonist for each receptor subtype. […]

[2] = biological target: T2, alpha2A adrenergic receptor (Homo sapiens, UniProt P08913); assay: Receptor Selection and Amplification Technology (RSAT) assay, alpha2A; format: cell-based; settings: RSAT in NIH-3T3 cells; ratio of maximal effect of drug to that of standard full agonist brimonidine (UK14304); NA = not active at concentrations less than 10 micromolar
T2 construct: expressed in transfected cells; host or cells: NIH-3T3 cells
T2 sequence (P08913 1-465): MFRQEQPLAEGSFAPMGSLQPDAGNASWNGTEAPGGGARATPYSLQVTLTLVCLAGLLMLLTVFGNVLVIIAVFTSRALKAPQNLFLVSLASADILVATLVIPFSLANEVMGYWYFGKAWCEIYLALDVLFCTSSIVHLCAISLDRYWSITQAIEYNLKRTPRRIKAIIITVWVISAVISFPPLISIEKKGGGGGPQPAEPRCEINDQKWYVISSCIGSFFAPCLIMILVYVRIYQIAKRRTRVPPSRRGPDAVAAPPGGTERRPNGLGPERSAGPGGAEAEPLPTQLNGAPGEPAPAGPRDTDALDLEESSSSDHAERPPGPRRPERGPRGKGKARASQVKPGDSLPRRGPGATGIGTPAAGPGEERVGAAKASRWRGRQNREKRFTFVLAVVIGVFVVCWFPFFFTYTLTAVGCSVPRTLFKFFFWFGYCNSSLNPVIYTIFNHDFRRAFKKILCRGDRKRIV
Text: as §1, §2, §3, §4

[3] = biological target: T3, alpha2B adrenergic receptor (Homo sapiens, UniProt P18089); assay: Receptor Selection and Amplification Technology (RSAT) assay, alpha2B; format: cell-based; settings: RSAT in NIH-3T3 cells; ratio of maximal effect of drug to that of standard full agonist brimonidine (UK14304); NA = not active at concentrations less than 10 micromolar
T3 construct: expressed in transfected cells; host or cells: NIH-3T3 cells
T3 sequence (P18089 1-450): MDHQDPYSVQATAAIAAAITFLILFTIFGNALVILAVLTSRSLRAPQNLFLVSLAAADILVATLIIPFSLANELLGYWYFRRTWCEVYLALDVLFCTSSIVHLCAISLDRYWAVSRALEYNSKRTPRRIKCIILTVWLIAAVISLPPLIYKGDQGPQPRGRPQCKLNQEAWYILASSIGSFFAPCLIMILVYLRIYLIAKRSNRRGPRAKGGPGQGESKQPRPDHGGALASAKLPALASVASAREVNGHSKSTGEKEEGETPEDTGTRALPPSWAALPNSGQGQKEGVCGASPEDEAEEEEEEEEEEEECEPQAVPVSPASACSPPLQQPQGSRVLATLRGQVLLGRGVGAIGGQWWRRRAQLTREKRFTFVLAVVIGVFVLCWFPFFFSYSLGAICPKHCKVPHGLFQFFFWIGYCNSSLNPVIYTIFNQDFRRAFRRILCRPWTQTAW
Text: as §1, §2, §3
NIH-3T3 cells are plated at a density of 2×10^6 cells in 15 cm dishes and maintained in Dulbecco's modified Eagle's medium supplemented with 10% calf serum. One day later, cells are cotransfected by calcium phosphate precipitation with mammalian expression plasmids encoding p-SV-β-galactosidase (5-10 μg), receptor (1-2 μg) and G protein (1-2 μg). 40 μg salmon sperm DNA may also be included in the transfection mixture. Fresh media is added on the following day and 1-2 days later, cells are harvested and frozen in 50 assay aliquots. Cells are thawed and 100 μl added to 100 μl aliquots of various concentrations of drugs in triplicate in 96-well dishes. Incubations continue 72-96 hr at 37° C. After washing with phosphate-buffered saline, β-galactosidase enzyme activity is determined by adding 200 μl of the chromogenic substrate (consisting of 3.5 mM o-nitrophenyl-β-D-galactopyranoside and 0.5% nonidet P-40 in phosphate buffered saline), incubating overnight at 30° C. and measuring optical density at 420 nm. The absorbance is a measure of enzyme activity, which depends on cell number and reflects a receptor-mediated cell proliferation. The efficacy or intrinsic activity is calculated as a ratio of the maximal effect of the drug to the maximal effect of a standard full agonist for each receptor subtype. […]
The RSAT assay measures a receptor-mediated loss of contact inhibition that results in selective proliferation of receptor-containing cells in a mixed population of confluent cells. The increase in cell number is assessed with an appropriate transfected marker gene such as ∃-galactosidase, the activity of which can be easily measured in a 96-well format. […]

Q: What does the source list for `CC(c1c[nH]c(=S)[nH]1)c1cccc(Cl)c1Cl` (stereo not drawn) [Compound 1, 4-[1-(2,3-dichloro-phenyl)-ethyl]-1,3-dihydro-imidazole-2-thione]?
A: sedative effect (male Sprague-Dawley rats): no sedative effect; Intrinsic Activity Alpha 2C [1]: 1.03; Intrinsic Activity Alpha 2A [2]: 0.87; Intrinsic Activity Alpha 2B [3]: 0.85

Q: With `CC(c1c[nH]c(=S)[nH]1)c1cccc(F)c1F` (stereo not drawn) [Compound 2, 4-[1-(2,3-difluoro-phenyl)-ethyl]-1,3-dihydro-imidazole-2-thione] as the compound, how does the “Intrinsic Activity Alpha 2C” value [1] read?
A: 0.83

Q: What about the “Intrinsic Activity Alpha 2A” value [2] of the same compound?
A: 0.66

Q: And the “Intrinsic Activity Alpha 2B” value [3]?
A: 0.99

Q: Which sedative effect (male Sprague-Dawley rats) does the source give for `CC(c1c[nH]c(=S)[nH]1)c1cccc(C(F)(F)F)c1F` (stereo not drawn) [Compound 3, 4-[1-(2-fluoro-3-trifluoromethyl-phenyl)-ethyl]-1,3-dihydro-imidazole-2-thione] here?
A: no sedative effect

Q: What about the “Intrinsic Activity Alpha 2C” value [1] of the same compound?
A: 0.84

Q: What about the “Intrinsic Activity Alpha 2A” value [2] of the same compound?
A: 0.88

Q: What about the “Intrinsic Activity Alpha 2B” value [3] of the same compound?
A: 1.04

Q: With `CC(c1ccccc1)c1c[nH]c(=S)[nH]1` (stereo not drawn) [Compound 4, 4-(1-phenyl-ethyl)-1,3-dihydro-imidazole-2-thione] as the compound, how does the “Intrinsic Activity Alpha 2B” value [3] read?
A: 1.11
